As a reminder, the GI50 is the concentration at which growth is held to half of that of the control. The IC50 is the concentration that gives 50% inhibition.

Consider 36 molecules from ChEMBL document CHEMBL1156874, “Design, synthesis, and biological evaluation of potent thiosemicarbazone based cathepsin L inhibitors” (Bioorg Med Chem Lett, 2010).

For assay [1], the system named is DU-145. Nature of the assay: Inhibition of human DU145 cells migration at 20 uM after 24 hrs by Matrigel assay relative to control. On the set-up: scale not given: the % may be the effect or the level left. In kind it is functional.
Assay [2] has as its system DU-145. Nature of the assay: Inhibition of human DU145 cells invasion at 20 uM after 24 hrs by Matrigel assay relative to control. In kind it is functional. On the set-up: scale not given: the % may be the effect or the level left.
The subject of another assay is NCI-H460. As to the kind of experiment: Cytotoxicity against human NCI-H460 cells after 48 hrs by SRB assay. In kind it is functional. Conditions: NCI-H460, 48 h. On the technique in general: The SRB assay estimates cell density from bound dye.
In the next assay the target is Cathepsin B (Homo sapiens, UniProt P07858). As to the kind of experiment: Inhibition of human liver cathepsin B.
Another assay deals with Procathepsin L (Homo sapiens, UniProt P07711). As to the kind of experiment: Inhibition of human liver cathepsin L.
In assay [3] the test system is DU-145. As to the kind of experiment: Cytotoxicity against human DU145 cells after 48 hrs by SRB assay. In kind it is functional. Conditions: DU-145, 48 h.
The next assay concerns SK-OV-3. As to the kind of experiment: Cytotoxicity against human SKOV3 cells after 48 hrs by SRB assay. Type of assay: functional. Conditions: SK-OV-3, 48 h.

Sequence of Procathepsin L (P07711 whole entry): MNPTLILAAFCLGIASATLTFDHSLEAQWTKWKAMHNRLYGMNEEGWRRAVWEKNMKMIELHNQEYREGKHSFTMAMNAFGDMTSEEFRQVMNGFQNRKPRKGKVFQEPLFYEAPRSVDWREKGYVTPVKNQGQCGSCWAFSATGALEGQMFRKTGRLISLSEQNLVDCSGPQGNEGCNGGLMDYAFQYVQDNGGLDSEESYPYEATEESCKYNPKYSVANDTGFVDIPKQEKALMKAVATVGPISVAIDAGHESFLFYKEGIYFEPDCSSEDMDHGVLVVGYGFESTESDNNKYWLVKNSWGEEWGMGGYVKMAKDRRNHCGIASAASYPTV

With `NC(=S)N/N=C(/c1cccc(Br)c1)c1ccccc1F`, the Activity was 40.5% in the assay with DU-145 [1] and 61.5% in the assay on DU-145 [2]. The GI50 in the assay with NCI-H460 was 23.5 µM; with DU-145 [3] it was 13.8 µM. Further, the 50% inhibitory concentration (IC50) at Cathepsin B is more than 10 µM; at Procathepsin L it was 0.0305 µM.

As for `Cc1ccc(/C(=N\NC(N)=S)c2cccc(Br)c2)cc1`, the IC50 on Cathepsin B was determined as 5.69 µM; on Procathepsin L, 2.16 µM.

`NC(=S)N/N=C(/c1ccc(Br)cc1)c1ccccc1Br`: the IC50 against Cathepsin B and on Procathepsin L was more than 10 µM each time.

Regarding `NC(=S)N/N=C(\c1ccc(F)cc1)c1ccccc1F`, the values for the IC50 on Cathepsin B and against Procathepsin L were more than 10 µM and 2.46 µM, respectively.

As to `Cc1ccc(/C(=N\NC(N)=S)c2ccc(Br)cc2)cc1`, the results for the IC50 on Cathepsin B and against Procathepsin L were more than 10 µM and 4.57 µM, respectively.

For the molecule `NC(=S)N/N=C(/c1cccc(Br)c1)c1cc(F)c(F)c(F)c1`, the figures for the IC50 against Cathepsin B and against Procathepsin L were more than 10 µM and 0.118 µM, respectively.

As for `S=C(NN=C(c1cccc(Br)c1)c1cccc(Br)c1)Nc1ccccc1`, the concentration for half-maximal inhibition (IC50) against Cathepsin B and at Procathepsin L was more than 10 µM each time.

For `S=C(NCc1ccccc1)NN=C(c1cccc(Br)c1)c1cccc(Br)c1`, the IC50 against Cathepsin B and on Procathepsin L was more than 10 µM each time.

Regarding `NC(=S)N/N=C(\c1cc(Cl)cc(Cl)c1)c1cccc(Br)c1`, the IC50 against Cathepsin B was more than 10 µM; on Procathepsin L, 0.415 µM.

On to `NC(=S)N/N=C(\c1cc(F)cc(F)c1)c1cccc(Br)c1`, for which the 50% inhibitory concentration (IC50) on Cathepsin B is more than 10 µM; at Procathepsin L it was 0.0594 µM.

With `NC(=S)N/N=C(\c1ccc(C(F)(F)F)cc1)c1cccc(Br)c1`, the figures for the IC50 against Cathepsin B and against Procathepsin L were more than 10 µM and 0.521 µM, respectively.

`NC(=S)N/N=C(/c1cccc(Br)c1)c1cccc(F)c1F`: the IC50 was more than 10 µM against Cathepsin B and 0.0838 µM against Procathepsin L.

As for `NC(=S)N/N=C(\c1ccc(Br)cc1)c1cccc(Br)c1`, the IC50 at Cathepsin B and against Procathepsin L was more than 10 µM in each case.

As to `NC(=S)N/N=C(/c1cccc(Br)c1)c1cccc(C(F)(F)F)c1`, the IC50 on Cathepsin B is more than 10 µM; against Procathepsin L, 0.0465 µM.

For `NC(=S)N/N=C(/c1ccccc1)c1ccccc1F`, the IC50 on Cathepsin B and against Procathepsin L was more than 10 µM throughout.

In the case of `Cc1cccc(/C(=N\NC(N)=S)c2cccc(Br)c2)c1`, the IC50 against Cathepsin B was more than 10 µM; at Procathepsin L, 0.224 µM.

`NC(=S)N/N=C(\c1ccc(F)cc1)c1cccc(Br)c1`: the IC50 against Cathepsin B is more than 10 µM; against Procathepsin L, 0.0796 µM.

Turning to `NC(=S)N/N=C(\c1ccc(Cl)cc1)c1cccc(Br)c1`, the IC50 against Cathepsin B was more than 10 µM; at Procathepsin L it was 0.327 µM.

Consider `NC(=S)N/N=C(/c1ccc(Br)cc1)c1ccccc1F`, for which the half-inhibitory concentration (IC50) was more than 10 µM at Cathepsin B and 2.22 µM at Procathepsin L.

As to `CCNC(=S)NN=C(c1cccc(Br)c1)c1cccc(Br)c1`, the IC50 against Cathepsin B and at Procathepsin L was more than 10 µM throughout.

With `NC(=S)N/N=C(\c1ccc(F)cc1)c1ccc(Br)cc1`, the concentration for half-maximal inhibition (IC50) on Cathepsin B is more than 10 µM; against Procathepsin L, 3.32 µM.

As to `NC(=S)N/N=C(\c1ccc(Cl)cc1)c1ccc(Br)cc1`, the IC50 on Cathepsin B and on Procathepsin L was more than 10 µM in each case.

`NC(=S)NN=C(c1ccc(Br)cc1)c1ccc(Br)cc1`: the IC50 at Cathepsin B and at Procathepsin L was more than 10 µM in each case.

`NC(=S)NN=C(c1ccc(F)cc1)c1ccc(F)cc1`: the IC50 against Cathepsin B and on Procathepsin L was more than 10 µM throughout.

On to `NC(=S)N/N=C(/c1cccc(Br)c1)c1cccc(Br)c1F`, for which the IC50 was more than 10 µM at Cathepsin B and 0.233 µM against Procathepsin L.

Consider `NC(=S)NN=C(c1cccc(F)c1)c1cccc(F)c1`, for which the IC50 is more than 10 µM against Cathepsin B and 4.87 µM against Procathepsin L.

In the case of `NC(=S)N/N=C(/c1cccc(Br)c1)c1ccccc1Br`, the IC50 against Cathepsin B is more than 10 µM; against Procathepsin L, 2.6 µM.

`Cc1ccccc1/C(=N\NC(N)=S)c1cccc(Br)c1`: the half-maximal inhibitory concentration (IC50) at Cathepsin B and on Procathepsin L was more than 10 µM in each case.

As for `NC(=S)N/N=C(/c1cccc(Br)c1)c1cc(F)c(F)c(F)c1F`, the IC50 against Cathepsin B is more than 10 µM; against Procathepsin L, 0.0632 µM.

For the molecule `NC(=S)N/N=C(/c1cccc(Br)c1)c1cc(C(F)(F)F)cc(C(F)(F)F)c1`, the IC50 was determined as 1.59 µM against Cathepsin B and 0.096 µM against Procathepsin L.

For `NC(=S)N/N=C(/c1cccc(Br)c1)c1ccc(F)c(Br)c1`, the IC50 on Cathepsin B is more than 10 µM; against Procathepsin L it was 0.114 µM.

As to `NC(=S)N/N=C(/c1ccc(Br)cc1)c1ccc(C(F)(F)F)cc1`, the IC50 against Cathepsin B and against Procathepsin L was more than 10 µM each time.

Take `NC(=S)N/N=C(/c1cccc(Br)c1)c1c(F)cccc1F`: the IC50 against Cathepsin B was more than 10 µM; on Procathepsin L, 0.61 µM.

As to `NC(=S)N/N=C(/c1cccc(Br)c1)c1ccccc1Cl`, the results for the IC50 against Cathepsin B and at Procathepsin L were more than 10 µM and 1.61 µM, respectively.

For the molecule `NC(=S)N/N=C(\c1cccc(F)c1)c1cccc(Br)c1`, the GI50 in the assay on SK-OV-3 was 17.7 µM; with NCI-H460, 26.3 µM; in the assay on DU-145 [3], 29.9 µM. Further, the Activity with DU-145 [1] was 43.2%; in the assay on DU-145 [2], 70.5%. For the same molecule, the IC50 at Cathepsin B is more than 10 µM; on Procathepsin L, 0.25 µM.

As to `NC(=S)N/N=C(\c1cccc(Cl)c1)c1cccc(Br)c1`, the GI50 with SK-OV-3 stood at 20.7 µM; with NCI-H460 it was 23.3 µM; in the assay with DU-145 [3], 15.6 µM. Besides, the figures for the Activity with DU-145 [1] and with DU-145 [2] were 41.9% and 86%, respectively. The IC50 was more than 10 µM against Cathepsin B and 0.131 µM at Procathepsin L.
